Several values for one entry are separate records, joined by “and”; a condition that tells them apart may be missing. Equal entries are not always repeated.
Assays:
[1] = Adsorption of Nipastat paraben components from hydrogel by gel retaining layer, HPLC of gel extract; type: physicochemical; conditions: 9 Days at 4° C.; for % Loss of Nipastat ® biocide from Gel: Gel + GRL versus Gel Control; for HPLC peak intensity of paraben extracted from hydrogel, Average: average of 5; for HPLC peak intensity of paraben extracted from hydrogel: individual samples 1-5
Description: (§1) Nipastat®-containing hydrogels were formulated with the appropriate buffer salts under standard conditions, from which samples were taken for analysis. […] The hydrogels were cut using a ¾ inch punch to generate the sample disks to assay. Each disk was added to 5 mL of acetonitrile/water (30% ACN, v/v) and the Nipastat® biocide was extracted for 1 hour while shaking on an orbital shaker at 100 rpm. The extract was then filtered through a 0.2 μm membrane prior to HPLC separation and UV detection at 254 nm.
(§2) Reverse phase HPLC chromatography was performed using a Waters 3.9 mm×15 cm Nova-Pak C-18 column (Milford, Mass.) operating at a flow rate of between about 1.0 to 2.0 mL/min. at 35° C. The eluent was monitored by UV at 254 nm using a Shimadzu SPD-10AU UV-Visible spectrometer (Kyoto, Japan). Samples 10 μL in volume were injected into the column equilibrated in 30% ACN in water, and the following 20-minute gradient program was performed: • 1. Initial time of injection: 30% ACN/70% water at a flow rate of 1 mL/min • 2. Linear Gradient from 30% ACN to 80% ACN for 9.0 minutes (1 mL/min) • 3. Linear Gradient from 80% ACN to 100% ACN for 0.5 minutes (1 mL/min) • 4. 100% ACN for 4.5 minutes (1 mL/min) • 5. Linear Gradient from 100% ACN to 30% ACN for 0.5 minutes at a flow rate of 2 mL/min • 6.30% ACN for 5.5 minutes at a flow rate of 1 mL/min
(§3) The HPLC profiles of the extracts were compared with that of a standard solution of known concentration comprising the p-hydroxybenzoate derivatives. The peak intensities of the experimental samples are compared to those of the standards to determine relative amounts of each extracted paraben.
(§4) Collection assemblies incorporating Nipastat® biocide-comprising hydrogels were assayed for retention of the biocide within the hydrogel. Samples of the hydrogel prior to and after incorporation into the collection assembly, as well as the components of the collection assembly in contact with the hydrogel, were prepared as described in Example 1.

[2] = Adsorption of Nipastat paraben components from hydrogel by mask layer, HPLC of gel extract; type: physicochemical; conditions: 48 Hours at 4° C.; for % Loss of Nipastat ® biocide from Gel: Gel + Mask versus Gel Control; for HPLC peak intensity of paraben extracted from hydrogel, Average: average of 5; for HPLC peak intensity of paraben extracted from hydrogel: individual samples 1-5
Description: as §1, §2, §3, §4

[3] = Response of sensing electrode to glucose, acetaminophen and uric acid in presence of biocide (percent recovery); conditions: preconditioned 10 minutes at 0.77V, 50 minutes at 0.42V
Text: Two biocides were compared with respect to the effects their presence (within the ionically conductive medium) had on signal generation at the sensing element under three conditions: in the presence of glucose, glucose plus acetaminophen, and glucose plus uric acid. The Nipastat® biocide was shown in the examples above to form a permeation selective barrier at the reactive face of the sensor element. The second biocide tested, undecylenic acid, was not expected to polymerize under the iontophoretic conditions used during the functionality test as described in the previous example. The measured responses of the sensor elements are presented in Table 7, normalized to a control “background” response for each sensor element. As described in Example 5, the sensor electrodes were assembled with the collection insert layer containing the appropriate ionically conductive material (control, Nipastat® biocide, or undecylenic acid biocide) to form the autosensor assemblies. The autosensor assemblies were preconditioned for 10 minutes at 0.77V, followed by 50 minutes at 0.42V, after which the glucose solution (200 μM) plus or minus the interferant species was deposited onto the ionically conductive material, and the response of the sensor element measured from this time forward.

[4] = Adsorption of undecylenic acid from hydrogel into mask layer, GC; type: physicochemical; conditions: Two Weeks at Room Temperature
Description: (§5) Collection assemblies incorporating sodium undecylenate-comprising hydrogels were assayed for retention of the biocide within the hydrogel. The presence of undecylenic acid in the hydrogel and assembly components was determined by gas chromatography (GC) using a Hewlett Packard (Avondale, Pa.) 5890 gas chromatogram equipped with an HP 3396A integrator. The hydrogels and collection assembly components were cut using a ¾ inch punch to generate the samples to assay. Each sample “disk” was added to 4 mL of 1M HCl, and the undecylenic acid was extracted for 2 hours while shaking on an orbital shaker at 150 rpm, followed by 10 minutes at 100 rpm. The sample disks were then extracted twice with 4 mL of ethyl acetate. Samples 1 μL in volume were injected into the GC and the results compared to that generated for a standard solution of undecylenic acid.

[5] = Adsorption of undecylenic acid from hydrogel into gel retaining layer, GC; type: physicochemical; conditions: Two Weeks at Room Temperature
Description: as §5

[6] = tested on: Eschericia coli; assay: Modified USP antimicrobial preservative effectiveness test of hydrogels; type: cell-based; conditions: Eschericia coli inoculation, 28 day period
Description: (§6) Nipastat® biocide and undecylenic acid were compared with respect to the effects their presence (within the ionically conductive medium) had on microbial growth over time. A modified USP antimicrobial preservative effectiveness test was performed, using Aspergillus niger, Candida albicans, Eschericia coli, Pseudomonas aeruginosa and Staphylococcus aureus. Separate portions of the two hydrogels were inoculated with a low concentration of one of the listed microorganisms, and recovery of the microorganism was determined over a period of 28 days. For this assay, the microorganisms were cultured, harvested and diluted to yield working suspensions of 2.0×10^3 to 2.0×10^4 colony forming units (CFUs)/sample.

[7] = tested on: Pseudomonas aeruginosa; assay: as above; type: cell-based; conditions: Pseudomonas aeruginosa inoculation, 28 day period
Description: as §6

[8] = tested on: Candida albicans; assay: as above; type: cell-based; conditions: Candida albicans inoculation, 28 day period
Description: as §6

[9] = tested on: Aspergillus niger; assay: as above; type: cell-based; conditions: Aspergillus niger inoculation, 28 day period
Description: as §6

[10] = tested on: Staphylococcus aureus; assay: as above; type: cell-based; conditions: Staphylococcus aureus inoculation, 28 day period
Description: as §6

[11] = Loss of undecylenic acid from hydrogel, gel control, GC; type: physicochemical; conditions: Two Weeks at Room Temperature
Description: as §5

Compound	% Loss of Nipastat ® biocide from Gel [1] [%]	HPLC peak intensity of paraben extracted from hydrogel, Average ([1]; Gel + GRL)	HPLC peak intensity of paraben extracted from hydrogel ([1]; Gel + GRL)	HPLC peak intensity of paraben extracted from hydrogel, Average ([1]; Gel Control)	HPLC peak intensity of paraben extracted from hydrogel ([1]; Gel Control)	% Loss of Nipastat ® biocide from Gel [2] [%]	HPLC peak intensity of paraben extracted from hydrogel, Average ([2]; Gel + Mask)	HPLC peak intensity of paraben extracted from hydrogel ([2]; Gel + Mask)	HPLC peak intensity of paraben extracted from hydrogel, Average ([2]; Gel Control)	HPLC peak intensity of paraben extracted from hydrogel ([2]; Gel Control)	other results
CCOC(=O)c1ccc(O)cc1 [Ethyl, p-hydroxybenzoic acid ethyl ester]	34.2	40848	23429 and 43116 and 38410 and 46214 and 53073	62118	58534 and 68190 and 70588 and 56529 and 56747	99.9	57	0 (4×) and 285	63573	43754 and 52495 and 93771 and 58684 and 69162	
COC(=O)c1ccc(O)cc1 [Methyl, p-hydroxybenzoic acid methyl ester]	17.0	231960	147682 and 239356 and 231307 and 251620 and 289836	279309	261836 and 315315 and 313086 and 256304 and 250006	96.1	10075	5445 and 11776 and 13807 and 11268 and 8081	257019	199735 and 233495 and 282756 and 265561 and 303549	
CCCOC(=O)c1ccc(O)cc1 [Propyl, p-hydroxybenzoic acid propyl ester]	58.5	10873	4958 and 11465 and 9664 and 15618	26218	24034 and 30121 and 30407 and 24349 and 22180	99.8	50	0 (4×) and 252	24535	18744 and 22146 and 27621 and 25936 and 28226	
C=CCCCCCCCCC(=O)O [undecylenic acid, 10-undecenoic acid]											formation of a permeation selective barrier impeding acetominophen and uric acid signal generation [3]: does not; % Loss for Gel + Mask Layer, Average ([4]; average): 73.1%; % Loss for Gel + Mask Layer ([4]; individual hydrogel samples): 73.3% and 68.5% and 78.2% and 72.5%; % Loss for Gel + GRL, Average ([5]; average): 28.1%; % Loss for Gel + GRL ([5]; individual hydrogel samples): 37.0% and 28.4% and 22.2% and 24.7%; biocide activity within the hydrogel: microbial count [6]: effective at reducing the microbial count; effectiveness compared between the two biocides [6]: equally effective; biocide activity within the hydrogel: microbial count [7]: effective at reducing the microbial count; effectiveness compared between the two biocides [7]: more effective than the Nipastat® biocide; biocide activity within the hydrogel: microbial count [8]: effective at reducing the microbial count; effectiveness compared between the two biocides [8]: equally effective; biocide activity within the hydrogel: microbial count [9]: effective at reducing the microbial count; effectiveness compared between the two biocides [9]: more effective than the Nipastat® biocide; biocide activity within the hydrogel: microbial count [10]: effective at reducing the microbial count; effectiveness compared between the two biocides [10]: more effective than the Nipastat® biocide; % Loss for Gel Control, Average ([11]; average): 62.4%; % Loss for Gel Control ([11]; individual hydrogel samples): 64.9% and 68.1% and 75.2% and 76.2% and 37.2% and 52.8%
p-hydroxybenzoic acid butyl esters						99.9	87	0 (4×) and 436		50220	
